Assay results: patent publication US20200024278A1, “COMPOSITION COMPRISING ANTIBIOTIC COMPOUND AND AN HETEROCYCLIC COMPOUND AND THEIR USE IN PREVENTING OR TREATING BACTERIAL INFECTIONS” (MUTABILIS, priority 2016, published 2020)

Assays:
Assay in all cases: MIC, broth microdilution (CLSI), substance alone or ATB combined with compound at 4 or 8 μg/mL
Format in all cases: cell-based, A. baumannii
ABA UFR151 = system: ABA UFR151
Protocol: (§1) Compounds of the present invention were assessed against genotyped bacterial strains alone or in combination with an antibacterial. In the assays, MICs of said compounds or combination of antibiotics with fixed concentrations of said compounds (4 or 8 μg/mL) were determined by the broth microdilution method according to the Clinical Laboratory Standards Institute (CLSI-M7-A7). Briefly, compounds alone according to the invention were prepared in DMSO and spotted (2 μL each) on sterile polystyrene plates (Corning, 3788). Combinations of compounds and antibiotics dilutions were prepared in DMSO and spotted (1 μL each) on sterile polystyrene plates (Corning, 3788). Log phase bacterial suspensions were adjusted to a final density of 5·10^5 CFU/mL in cation-adjusted Mueller-Hinton broth (ca-MHB; Becton-Dickinson and Company) and added to each well (98 μL). Assays including Fosfomycin were supplemented with 25 μg/ml of Glucose-6-phosphate. Microplates were incubated for 16-20 h at 35° C. in ambient air. The MIC of the compounds was defined as the lowest concentration of said compounds that prevented bacterial growth as read by visual inspection. The MIC of ATB at each compound concentration was defined as the lowest concentration of ATB that prevented bacterial growth as read by visual inspection.

ABA UFR160 = system: ABA UFR160
Protocol: as §1

ABA UFR156 = system: ABA UFR156
Protocol: as §1

ABA UFR152 = system: ABA UFR152
Protocol: as §1

ABA UFR159 = system: ABA UFR159
Protocol: as §1

ABA UFR153 = system: ABA UFR153
Protocol: as §1

ABA UFR157 = system: ABA UFR157
Protocol: as §1

- MIC ATB combined with Example 9 @4 μg/ml (ABA UFR151; with Example 9 @4 μg/ml): 0.5 µg/mL
- MIC ATB combined with Example 10 @8 μg/ml (ABA UFR151; with Example 10 @8 μg/ml): <=0.25 μg/mL
- MIC ATB combined with Example 11 @8 μg/ml (ABA UFR151; with Example 11 @8 μg/ml): <=0.25 μg/mL
- MIC ATB combined with Example 12 @8 μg/ml (ABA UFR151; with Example 12 @8 μg/ml): <=0.25 μg/mL
- MIC ATB combined with Example 15 @4 μg/ml (ABA UFR151; with Example 15 @4 μg/ml): <=0.25 μg/mL
- MIC ATB alone (ABA UFR160; antibiotic alone): >128 µg/mL
- MIC ATB combined with Example 1 @8 μg/ml (ABA UFR160; with Example 1 @8 μg/ml): 64 µg/mL
- MIC ATB combined with Example 3 @8 μg/ml (ABA UFR160; with Example 3 @8 μg/ml): 64 µg/mL
- MIC ATB combined with Example 6 @8 μg/ml (ABA UFR160; with Example 6 @8 μg/ml): <0.25 µg/mL
- MIC ATB combined with Example 9 @4 μg/ml (ABA UFR160; with Example 9 @4 μg/ml): 64 µg/mL
- MIC ATB combined with Example 10 @8 μg/ml (ABA UFR160; with Example 10 @8 μg/ml): 64 µg/mL
- MIC ATB combined with Example 11 @8 μg/ml (ABA UFR160; with Example 11 @8 μg/ml): 64 µg/mL
- MIC ATB combined with Example 12 @8 μg/ml (ABA UFR160; with Example 12 @8 μg/ml): 64 µg/mL
- MIC ATB combined with Example 15 @4 μg/ml (ABA UFR160; with Example 15 @4 μg/ml): 64 µg/mL
- MIC ATB alone (ABA UFR156; antibiotic alone): 64 µg/mL
- MIC ATB combined with Example 1 @8 μg/ml (ABA UFR156; with Example 1 @8 μg/ml): 16 µg/mL
- MIC ATB combined with Example 3 @8 μg/ml (ABA UFR156; with Example 3 @8 μg/ml): 2 µg/mL
- MIC ATB combined with Example 6 @8 μg/ml (ABA UFR156; with Example 6 @8 μg/ml): 4 µg/mL
- MIC ATB combined with Example 9 @4 μg/ml (ABA UFR156; with Example 9 @4 μg/ml): 16 µg/mL
- MIC ATB combined with Example 10 @8 μg/ml (ABA UFR156; with Example 10 @8 μg/ml): 1 µg/mL
- MIC ATB combined with Example 11 @8 μg/ml (ABA UFR156; with Example 11 @8 μg/ml): 8 µg/mL
- MIC ATB combined with Example 12 @8 μg/ml (ABA UFR156; with Example 12 @8 μg/ml): 4 µg/mL
- MIC ATB combined with Example 15 @4 μg/ml (ABA UFR156; with Example 15 @4 μg/ml): 8 µg/mL
- MIC ATB alone (ABA UFR152; antibiotic alone): 4 µg/mL
- MIC ATB combined with Example 1 @8 μg/ml (ABA UFR152; with Example 1 @8 μg/ml): 4 µg/mL
- MIC ATB combined with Example 3 @8 μg/ml (ABA UFR152; with Example 3 @8 μg/ml): 1 µg/mL
- MIC ATB combined with Example 6 @8 μg/ml (ABA UFR152; with Example 6 @8 μg/ml): 2 µg/mL
- MIC ATB combined with Example 9 @4 μg/ml (ABA UFR152; with Example 9 @4 μg/ml): 2 µg/mL
- MIC ATB combined with Example 10 @8 μg/ml (ABA UFR152; with Example 10 @8 μg/ml): 1 µg/mL
- MIC ATB combined with Example 11 @8 μg/ml (ABA UFR152; with Example 11 @8 μg/ml): 1 µg/mL
- MIC ATB combined with Example 12 @8 μg/ml (ABA UFR152; with Example 12 @8 μg/ml): 1 µg/mL
- MIC ATB combined with Example 15 @4 μg/ml (ABA UFR152; with Example 15 @4 μg/ml): 2 µg/mL
- MIC ATB alone (ABA UFR159; antibiotic alone): 256 µg/mL
- MIC ATB combined with Example 1 @8 μg/ml (ABA UFR159; with Example 1 @8 μg/ml): 128 µg/mL
- MIC ATB combined with Example 3 @8 μg/ml (ABA UFR159; with Example 3 @8 μg/ml): 128 µg/mL
- MIC ATB combined with Example 6 @8 μg/ml (ABA UFR159; with Example 6 @8 μg/ml): 128 µg/mL
- MIC ATB combined with Example 9 @4 μg/ml (ABA UFR159; with Example 9 @4 μg/ml): 128 µg/mL
- MIC ATB combined with Example 10 @8 μg/ml (ABA UFR159; with Example 10 @8 μg/ml): 128 µg/mL
- MIC ATB combined with Example 11 @8 μg/ml (ABA UFR159; with Example 11 @8 μg/ml): 128 µg/mL
- MIC ATB combined with Example 12 @8 μg/ml (ABA UFR159; with Example 12 @8 μg/ml): 128 µg/mL
- MIC ATB combined with Example 15 @4 μg/ml (ABA UFR159; with Example 15 @4 μg/ml): 128 µg/mL
- MIC ATB alone (ABA UFR153; antibiotic alone): 4 µg/mL
- MIC ATB combined with Example 1 @8 μg/ml (ABA UFR153; with Example 1 @8 μg/ml): 1 µg/mL
- MIC ATB combined with Example 3 @8 μg/ml (ABA UFR153; with Example 3 @8 μg/ml): <=0.25 μg/mL
- MIC ATB combined with Example 6 @8 μg/ml (ABA UFR153; with Example 6 @8 μg/ml): <=0.25 μg/mL
- MIC ATB combined with Example 9 @4 μg/ml (ABA UFR153; with Example 9 @4 μg/ml): 0.5 µg/mL
- MIC ATB combined with Example 10 @8 μg/ml (ABA UFR153; with Example 10 @8 μg/ml): <=0.25 μg/mL
- MIC ATB combined with Example 11 @8 μg/ml (ABA UFR153; with Example 11 @8 μg/ml): <=0.25 μg/mL
- MIC ATB combined with Example 12 @8 μg/ml (ABA UFR153; with Example 12 @8 μg/ml): <=0.25 μg/mL
- MIC ATB combined with Example 15 @4 μg/ml (ABA UFR153; with Example 15 @4 μg/ml): <=0.25 μg/mL
- MIC ATB alone (ABA UFR157; antibiotic alone): 64 µg/mL
- MIC ATB combined with Example 1 @8 μg/ml (ABA UFR157; with Example 1 @8 μg/ml): 2 µg/mL
- MIC ATB combined with Example 3 @8 μg/ml (ABA UFR157; with Example 3 @8 μg/ml): 0.5 µg/mL
- MIC ATB combined with Example 6 @8 μg/ml (ABA UFR157; with Example 6 @8 μg/ml): <0.25 µg/mL
- MIC ATB combined with Example 9 @4 μg/ml (ABA UFR157; with Example 9 @4 μg/ml): 1 µg/mL
- MIC ATB combined with Example 10 @8 μg/ml (ABA UFR157; with Example 10 @8 μg/ml): 1 µg/mL
- MIC ATB combined with Example 11 @8 μg/ml (ABA UFR157; with Example 11 @8 μg/ml): 0.5 µg/mL
- MIC ATB combined with Example 12 @8 μg/ml (ABA UFR157; with Example 12 @8 μg/ml): 0.5 µg/mL
- MIC ATB combined with Example 15 @4 μg/ml (ABA UFR157; with Example 15 @4 μg/ml): 1 µg/mL
SMILES: CC1(C)[C@H](C(=O)O)N2C(=O)C[C@H]2S1(=O)=O [SUL]
